# From PubChem BioAssay (NCI)
# “And” between values parts separate entries of the source, which are not always exact repeats. Equal values may be shown once.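 Assay format: 96-well plates, 48-hour exposure. At the GI50, growth is halved. TGI denotes the concentration required for complete inhibition of growth.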
# Tests used:
# Experiment in all cases: growth of human tumour cells (NCI), 48 h
# COLO 205 colon = system: COLO 205 colon
# HCC-2998 colon = system: HCC-2998 colon
# HOP-62 NSCLC = system: HOP-62 NSCLC
# MDA-MB-231 breast = system: MDA-MB-231 breast
# NCI-H460 lung = system: NCI-H460 lung
# SK-MEL-28 melanoma = system: SK-MEL-28 melanoma
# SNB-75 CNS = system: SNB-75 CNS
# UACC-62 melanoma = system: UACC-62 melanoma
# UO-31 renal = system: UO-31 renal
# HL-60(TB) leukemia = system: HL-60(TB) leukemia
SMILES,TGI (COLO 205 colon),TGI (HCC-2998 colon),TGI (HOP-62 NSCLC),TGI (MDA-MB-231 breast),TGI (NCI-H460 lung),TGI (SK-MEL-28 melanoma),TGI (SNB-75 CNS),TGI (UACC-62 melanoma),TGI (UO-31 renal),TGI (HL-60(TB) leukemia),GI50 (SNB-75 CNS),GI50 (UACC-62 melanoma),GI50 (HCC-2998 colon),GI50 (UO-31 renal)
CN(C)c1ccc2nc(CC(O)(C(F)(F)F)C(F)(F)F)ccc2c1,> 10 µM,> 10 µM,> 10 µM,> 10 µM,> 10 µM,> 10 µM,> 10 µM,> 10 µM,> 10 µM,,,,,
COC(=O)/C(=N\NC(N)=O)C(C(=O)C=C(C)C)C(=O)C(=O)Nc1ccc(Cl)c(Cl)c1 (stereo not given),> 100 µM,> 100 µM,> 100 µM,,> 100 µM,> 100 µM,> 100 µM,> 100 µM,> 100 µM,> 100 µM,,,,
COc1ccc2nc(NC(=O)C(=O)NNC(=O)c3ccncc3)sc2c1,> 100 µM,> 100 µM,> 100 µM,,> 100 µM,> 100 µM,> 100 µM,> 100 µM,> 100 µM,> 100 µM,,,,
O=C(O[C@H]1CCN2C[C@H]3C[C@H](CN4C(=O)CCC[C@H]34)[C@@H]2C1)c1ccc(O)cc1,> 100 µM,> 100 µM,> 100 µM,> 100 µM,> 100 µM,> 100 µM,> 100 µM,> 100 µM,> 100 µM,,,,,
CC(C)C1N2CCCCC2[C@@H]2c3[nH]c4ccccc4c3CCN12 (stereo not given in full),> 100 µM,> 100 µM,> 100 µM,,> 100 µM,> 100 µM,> 100 µM,> 100 µM,> 100 µM,> 100 µM,,,,
Cc1cc(Cl)ccc1NC(=O)C(=O)C(C(=O)c1ccccc1)C1OC(=O)c2ccccc21 (stereo not given),> 100 µM,> 100 µM,> 100 µM,,> 100 µM,> 100 µM,> 100 µM,> 100 µM,> 100 µM,> 100 µM,,,,
CCc1cccc(C)c1NC(=S)NC(=O)c1ccccc1C(=O)NC(=S)Nc1c(C)cccc1CC,> 100 µM,> 100 µM,> 100 µM,,> 100 µM,> 100 µM,> 100 µM,> 100 µM,> 100 µM,> 100 µM,,,,
CCOP1(=O)C=C(C)C(=C(Cl)Cl)C(C)=C1 (stereo not given),29 µM,31.4 µM,40.6 µM,,> 100 µM,> 100 µM,> 100 µM,23.6 µM,52.9 µM,10.9 µM,30 µM,9.31 µM,,
CCCCCCCCCCCCCB(O)O,> 100 µM,> 100 µM and 84.7 µM,> 100 µM,,> 100 µM,> 100 µM,> 100 µM and 37.6 µM,> 100 µM,> 100 µM,> 100 µM and 42.5 µM,,,> 100 µM and 32 µM,> 100 µM and 27.5 µM
